In the NIST ThermoML archive (doi:10.1016/j.fluid.2007.01.033):

Columns and labels:
[1] = refractive index (Na D-line) (dimensionless); settings: 298.15 K; 101.33 kPa; Liquid; Standard Abbe refractometry
[2] = xn = mol fraction of the nth substance listed; settings: 313.15 K, Liquid

COC(C)=O [methyl ethanoate]
Settings | Normal boiling temperature [°C] | refractive index
Liquid | 56.89 | –
[1] | – | 1.3594

Settings | mass density [kg/m3]
298.15 K, 101.33 kPa, Liquid | 927.1

O=C=O [carbon dioxide]
313.15 K, Fluid (supercritical or subcritical phases)
Settings | mass density [kg/m3]
1000 kPa | 17.9
2000 kPa | 37.1
3000 kPa | 58.7
4000 kPa | 83.5
5000 kPa | 112.7
6000 kPa | 148.8
7000 kPa | 197.3
8000 kPa | 276.7
9000 kPa | 483.4
10000 kPa | 627.4

COC(C)=O [methyl ethanoate] + O=C=O
mass density [kg/m3], [2]
Settings | 1000 kPa | 2000 kPa | 3000 kPa | 4000 kPa | 5000 kPa | 6000 kPa | 7000 kPa | 8000 kPa | 9000 kPa | 10000 kPa
x2 = 0 | 907.9 | 908.9 | 909.7 | 910.9 | 912 | 913.1 | 914.1 | 915.1 | 916.1 | 917.1
x2 = 0.1 | 910 | 911.1 | 912.4 | 913.5 | 914.7 | 915.9 | 917 | 918.1 | 919.2 | 920.3
x2 = 0.2 | – | 913.9 | 915.2 | 916.6 | 917.9 | 919.1 | 920.4 | 921.7 | 922.9 | 924.1
x2 = 0.3 | – | – | – | 917.1 | 918.6 | 920.1 | 921.5 | 922.9 | 924.3 | 925.7
x2 = 0.4 | – | – | – | 917.4 | 919.2 | 920.9 | 922.7 | 924.3 | 925.9 | 927.5
x2 = 0.5 | – | – | – | – | 915.4 | 917.5 | 919.6 | 921.6 | 923.7 | 925.6
x2 = 0.6 | – | – | – | – | – | 909 | 912.8 | 915.5 | 918.1 | 920.7
x2 = 0.7 | – | – | – | – | – | 891.8 | 895.9 | 899.7 | 903.5 | 907
x2 = 0.8 | – | – | – | – | – | – | 861.5 | 868.2 | 873.8 | 879.5
x2 = 0.9 | – | – | – | – | – | – | – | 793.5 | 808 | 820.3
x2 = 0.95 | – | – | – | – | – | – | – | – | 734.6 | 759.7
